Source: PMC11375786, “Induction of Paraptotic Cell Death in Cancer Cells by Triptycene–Peptide Hybrids and the Revised Mechanism of Paraptosis II” (Biochemistry, 2024)
Like-named read-outs stand apart in the source and are kept apart here. Peptide text beside a SMILES is read from it. * marks the point of attachment. Cbz = O=C(OCc1ccccc1)*; CH2F = FC*

Experiments:
[1] = system: Jurkat cells; experiment: MTT assay of Jurkat cells treated with 4 or celastrol in the presence of inhibitors; assay type: cell-based; settings: DIDS 75 or 100 μM, RuRed 75 μM; for Inhibition of 4-induced cell death in Jurkat cells: 4 2.5 μM 1 h, Z-VAD-fmk 15 μM, necrostatin-1 30 μM, 3-MA 10 μM, CCCP 40 μM, 2-APB 50 or 100 μM
Method: (a) Jurkat cells: Jurkat cells (2.0 × 10^5 cells/mL) in RPMI 1640 medium with 10% FBS were pretreated with the inhibitors (Z-VAD-fmk (final concentration = 15 μM), necrostatin-1 (final concentration = 30 μM), 3-MA (final concentration = 10 μM), and DIDS (75 or 100 μM)) for 3 h or pretreated with other inhibitors (CCCP (40 μM), FCCP (40 μM), 2-APB (50 or 100 μM) and RuRed (75 μM)) for 1 h under 5% CO2 at 37 °C. After incubation, 4 (final concentration = 2.5 μM) was added to the cell suspension, which was then incubated for 1 h at 37 °C. To test the effect of celastrol, the cells were pretreated with the aforementioned inhibitors and then incubated with celastrol (5 μM) for 24 h. MTT reagent (5 mg/mL) in PBS (10 μL) was added to the cells. After incubation at 37 °C for 4 h, a formazan lysis solution (10% sodium dodecyl sulfate (SDS) in 0.01 N HCl) (100 μL) was added, and the resultant solution was incubated overnight under the same conditions, followed by measurement of the absorbance at 570 nm using a microplate reader (ARVO, PerkinElmer).

[2] = system: HeLa-S3 cells; experiment: MTT assay of HeLa-S3 cells treated with 4 or celastrol in the presence of inhibitors; assay type: cell-based, human; settings: 4 5 μM 1 h; Z-VAD-fmk 100 μM, necrostatin-1 100 μM, 3-MA 5 mM, CCCP 160 μM, DIDS 75 or 100 μM
Method: (b) HeLa-S3 cells: HeLa-S3 cells (2.0 × 10^5 cells/mL) in MEM medium with 10% FBS were pretreated with the inhibitors (3-MA (5 mM), and DIDS (75 or 100 μM)) for 3 h or pretreated with other inhibitors (Z-VAD-fmk (100 μM), necrostatin-1 (100 μM), CCCP (160 μM), and FCCP (80 μM)) for 1 h under 5% CO2 at 37 °C. After the incubation, 4 (final concentration = 5 μM) was added to the cell suspension, which was then incubated for 1 h at 37 °C. Subsequent procedures were the same as those used for the Jurkat cells.

[3] = system: A549 cells; experiment: MTT assay of A549 cells treated with 4 or celastrol in the presence of inhibitors; assay type: cell-based, human; settings: 4 10 μM 1 h; Z-VAD-fmk 100 μM, necrostatin-1 100 μM, 3-MA 1 mM, CCCP 250 μM, DIDS 250 μM
Method: (c) A549 cells: A549 cells (2.0 × 10^5 cells/mL) in DMEM medium with 10% FBS were pretreated with the inhibitors (3-MA (1 mM), and DIDS (250 μM)) for 3 h or pretreated with other inhibitors (Z-VAD-fmk (100 μM), necrostatin-1 (100 μM), CCCP (250 μM), and FCCP (10 μM)) for 1 h under 5% CO2 at 37 °C. After incubation, 4 (final concentration = 10 μM) was added to the cell suspension, which was then incubated for 1 h at 37 °C. Subsequent procedures were the same as those used for the Jurkat cells.

[4] = system: Jurkat cells; experiment: Costaining of ER and mitochondria (ERTracker Red, MitoTracker Green), confocal microscopy, Jurkat cells; assay type: cell-based; settings: 4 2.5 μM, CCCP 40 μM
Method: Jurkat, HeLa-S3, A549, and IMR90 cells (2.0 × 10^5 cells) were incubated with 4 (final concentration = 2.5 μM (for Jurkat), 5 μM (for HeLa-S3), 10 μM (for A549) and 5 μM and 50 μM (for IMR90)) in cell culture medium at 37 °C under 5% CO2. After incubation, MitoTracker Green (final concentration = 100 nM (for Jurkat) or 500 nM (for HeLa-S3, A549 and IMR90)), or ERTracker Red (final concentration = 500 nM (for Jurkat) or 1 μM (for HeLa-S3, A549 and IMR90)) were applied for 1 h under the same conditions. After washing with PBS, the cells were observed via confocal fluorescence microscopy (FluoView, FV-1000, Olympus). Excitation at 473 nm and emissions from 485 to 585 nm were used for detecting the MitoTracker Green. Excitation at 559 nm and emissions from 570 to 670 nm were used for detecting the ERTracker Red. Exposure time was 20 μs/pixel.

[5] = system: A549 cells; experiment: cells
Method: (§1) HeLa S3 cells (human cervical carcinoma) were cultured in Minimum essential medium (MEM) containing 10% FBS, penicillin, and streptomycin. A549 cells (human lung carcinoma) and IMR90 cells (human fetal lung fibroblast) were cultured in Dulbecco’s modified Eagle’s medium (DMEM) with 10% FBS, penicillin, and streptomycin. All cells were cultured at 37 °C under a humidified atmosphere containing 5% CO2.
(§2) Jurkat, HeLa-S3, A549 cells (2.0 × 10^5 cells/mL) and IMR90 cells (1.0 × 10^5 cells/mL) were incubated in the presence of 3–7 for 1 h, and etoposide, cisplatin and celastrol for 24 h (50 μL) in cell culture medium under CO2 at 37 °C in 96-well plates (BD Falcon). MTT reagent (5 mg/mL) in PBS (10 μL) was then added to the cells. After incubation at 37 °C for 4 h, a formazan lysis solution (10% sodium dodecyl sulfate (SDS) in 0.01 N HCl) (100 μL) was added and the resultant solution was incubated overnight under the same conditions, which was followed by measurement of the absorbance at 570 nm using a microplate reader (ARVO, PerkinElmer).

[6] = system: HeLa-S3 cells; experiment: cells; settings: read-out: EC50 against HeLa-S3 cells
Method: as §1, §2

[7] = system: IMR90 cells; experiment: cells; settings: read-out: EC50 against IMR90 cells
Method: as §1, §2

[8] = system: Jurkat cells; experiment: cells; settings: read-out: EC50 against Jurkat cells
Method: as §1, §2

[9] = system: Ca^2+ concentrations in mitochondria and cytosol in HeLa-S3 cells; experiment: Rhod-2/AM and Rhod-4/AM emission (mitochondrial and cytosolic Ca2+) in HeLa-S3 cells; assay type: cell-based, human; settings: 4 5 μM 1 h; celastrol or cisplatin 100 μM 2–6 h
Method: Jurkat, HeLa-S3, and A549 cells (2.0 × 10^5 cells) were preincubated with Rhod-2/AM (final concentration = 5 μM) or Rhod-4/AM (final concentration = 5 μM) in medium under 5% CO2 at 37 °C for 30 min and then treated with 4 (final concentration = 2.5, 5, or 10 μM) for 0, 15, 30, 45, and 60 min. HeLa-S3 and A549 cells were detached by accutase, immediately after which the cells were suspended in 300 μL of cell culture medium and then analyzed on a flow cytometer (FACS Calibur cytometer, Becton), and the data were analyzed using the FlowJo software (FlowJo, LCC).
Jurkat, HeLa-S3, A549, and IMR90 cells (2.0 × 10^5 cells) were stained with Rhod-2/AM or Rhod-4/AM (final concentration = 5 μM) for 30 min at 37 °C under 5% CO2. The cells were washed with PBS and were treated with 4 (final concentration = 2.5, 5, or 10 μM) in cell culture medium for 30 and 60 min at 37 °C under 5% CO2. To test the effect of celastrol and cisplatin in HeLa-S3 and A549 cells, the cells were incubated with celastrol (final concentration = 100 μM) and cisplatin (final concentration = 100 μM) for 2–6 h. After washing with PBS, the cells were observed via fluorescence microscopy (BZ-X800, Keyence) using a Greiner CELLview Petri dish (35 × 10 mm^2). Emission images were observed using a TRITC filter (excitation 540 nm, emission 605 nm).
Jurkat, HeLa-S3, A549, and IMR90 cells (8.0 × 10^4 cells) were incubated with CCCP or 2-APB for 1 h and then stained with Rhod-2/AM or Rhod-4/AM (final concentration = 5 μM) for 30 min at 37 °C under 5% CO2. The cells were washed with PBS and were treated with 4 (final concentration = 2.5, 5, or 10 μM) in PBS for 0–60 min at 37 °C in a microplate reader (ARVO, PerkinElmer). Excitation at 540 nm and emission at 590 nm were used for the measurement of Rhod-2/AM and Rhod-4/AM on the microplate reader.

[10] = system: labile Fe^2+ in mitochondria of Jurkat cells; experiment: Mito-FerroGreen fluorescence microscopy in Jurkat cells; assay type: cell-based; settings: 4 2.5 μM 1 h; celastrol 5 μM, etoposide 5 μM, cisplatin 100 μM 24 h
Method: (§3) Jurkat cells (2.0 × 10^5 cells) were treated with 4 (2.5 μM), etoposide (5 μM), cisplatin (100 μM) and celastrol (5 μM) and stained with Mito-FerroGreen (a probe for labile Fe^2+ in mitochondria) (5 μM) and zinquin (a probe for intracellular Zn^2+) (25 μM). The cell images were observed via fluorescence microscopy.

[11] = system: intracellular Zn^2+ in Jurkat cells; experiment: Zinquin fluorescence microscopy in Jurkat cells; assay type: cell-based; settings: 4 2.5 μM 1 h; celastrol 5 μM, etoposide 5 μM, cisplatin 100 μM 24 h
Method: as §3

[12] = MTT, incubation 24 h (etoposide, cisplatin, celastrol)

Q: Cn1cnc(N)c2ncnc1-2 [3-MA, 3-methyladenine] was tested. Which “Inhibition of 4-induced cell death in Jurkat cells” value [1] did it give?
A: negligibly inhibited

Q: What about the “Inhibition of 4-induced cell death in HeLa-S3 cells” value (“Inhibition … in HeLa-S3 cells” for short) [2] of the same molecule?
A: negligibly inhibited

Q: And the “Inhibition of 4-induced cell death in A549 cells” value (shortened to “Inhibition … in A549 cells”) [3]?
A: negligibly inhibited

Q: What does the source list for N#CC(C#N)=NNc1cccc(Cl)c1 [CCCP, carbonyl cyanide 3-chlorophenylhydrazone]?
A: Inhibition of 4-induced cell death in Jurkat cells [1]: considerably inhibited; Inhibition of 4-induced cell death in HeLa-S3 cells [2]: considerably inhibited; Inhibition of 4-induced cell death in A549 cells [3]: considerably inhibited; Inhibition of the 4-induced overlap of emission from MitoTracker Green and ERTracker Red in Jurkat cells [4]: considerably inhibited

Q: With O=S(=O)(O)c1cc(N=C=S)ccc1C=Cc1ccc(N=C=S)cc1S(=O)(=O)O [DIDS, 4,4′-diisothiocyano-2,2′-stilbenedisulfonic acid] as the molecule, how does the “Inhibition of 4-induced cell death in Jurkat cells” value [1] read?
A: considerably inhibits

Q: What about the “Inhibition of celastrol-induced cell death in Jurkat cells” value ([1]; celastrol 5 μM 24 h, 2-APB 50 μM) of the same molecule?
A: did not significantly stop cell death

Q: And the “Inhibition … in HeLa-S3 cells” value [2]?
A: considerably inhibits

Q: And the “Inhibition … in A549 cells” value [3]?
A: considerably inhibits

Q: With COC(=O)CC(NC(=O)C(C)NC(=O)C(NC(=O)OCc1ccccc1)C(C)C)C(=O)CF (stereo not drawn) [Z-VAD-fmk, benzyloxycarbonyl-VAD(OMe)-fluoromethylketone] (Cbz-Val-Ala-Asp(OMe)-CH2F; configuration not given here) as the molecule, how does the “Inhibition of 4-induced cell death in Jurkat cells” value [1] read?
A: negligibly inhibited

Q: And the “Inhibition … in HeLa-S3 cells” value [2]?
A: negligibly inhibited

Q: And the “Inhibition … in A549 cells” value [3]?
A: negligibly inhibited

Q: With N.N.[Cl][Pt][Cl] [cisplatin] as the molecule, how does the EC50 ([5]; read-out: EC50 against A549 cells, MTT, incubation 24 h (etoposide, cisplatin, celastrol)) read?
A: > 100 µM

Q: What about the EC50 [6, 12] of the same molecule?
A: 15 ± 3.4 µM

Q: What about the EC50 [7, 12] of the same molecule?
A: > 12.5 µM

Q: And the EC50 [8, 12]?
A: 5.8 ± 1.4 µM

Q: What about the “Emission of Rhod-2/AM (mitochondrial Ca2+) in HeLa-S3 cells” value [9] of the same molecule?
A: weak enhancement

Q: What about the “Emission from Mito-FerroGreen (free Fe2+ in mitochondria) in Jurkat cells” value [10] of the same molecule?
A: increases in both free-Fe^2+ and free-Zn^2+

Q: What about the “Emission from zinquin (intracellular free Zn2+) in Jurkat cells” value [11] of the same molecule?
A: increases in both free-Fe^2+ and free-Zn^2+

Q: Which EC50 ([5]; Homo sapiens, A549, read-out: EC50 against A549 cells) does the source give for COc1cc([C@@H]2c3cc4c(cc3[C@@H](O[C@@H]3O[C@@H]5CO[C@@H](C)O[C@H]5[C@H](O)[C@H]3O)[C@H]3COC(=O)[C@H]23)OCO4)cc(OC)c1O [etoposide] here?
A: > 100 µM

Q: What about the EC50 ([6]; Homo sapiens, HeLa S3, 24 h) of the same molecule?
A: > 100 µM

Q: And the EC50 ([7]; Homo sapiens, IMR-90, 24 h)?
A: > 25 µM

Q: What about the EC50 ([8]; Homo sapiens, Jurkat, 24 h) of the same molecule?
A: 3.1 ± 0.1 µM

Q: What about the “Emission from Mito-FerroGreen (free Fe2+ in mitochondria) in Jurkat cells” value [10] of the same molecule?
A: increases in both free-Fe^2+ and free-Zn^2+

Q: And the “Emission from zinquin (intracellular free Zn2+) in Jurkat cells” value [11]?
A: increases in both free-Fe^2+ and free-Zn^2+

Q: How did the “Inhibition of 4-induced cell death in Jurkat cells” value [1] turn out when CN1C(=O)C(Cc2c[nH]c3ccccc23)NC1=S (stereo not drawn) [necrostatin-1] was run?
A: negligibly inhibited

Q: What about the “Inhibition … in HeLa-S3 cells” value [2] of the same molecule?
A: negligibly inhibited

Q: And the “Inhibition … in A549 cells” value [3]?
A: negligibly inhibited
